The results in this text go back to PMC2654404 (Journal of molecular biology, 2008).

Several values for one entry are separate records, joined by “and”; a condition that tells them apart may be missing. Equal entries are not always repeated. Where two headings read alike, the source gives them in different places. Marks after values point to notes of the source that are not given here.

In experiment [1] the target is T1, B. anthracis NMAT (Bacillus anthracis, UniProt C3L5T6). Format: biochemical.
T1 sequence (C3L5T6 whole entry, looked up): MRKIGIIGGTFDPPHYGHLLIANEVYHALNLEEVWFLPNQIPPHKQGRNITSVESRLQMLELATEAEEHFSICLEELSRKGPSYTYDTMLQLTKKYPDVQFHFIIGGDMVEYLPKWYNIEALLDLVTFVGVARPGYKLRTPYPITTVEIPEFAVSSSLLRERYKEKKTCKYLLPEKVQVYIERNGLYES
Experiment [2] deals with T1, B. anthracis NMAT. Format: biochemical. The source holds these as a separate data set.
In experiment [3] the target is T1, B. anthracis NMAT. Briefly: biochemical. The experiment is classed as binding.
A further experiment concerns the target (His)6-tagged NMAT (Bacillus anthracis, UniProt C3L5T6).
The subject of experiment [4] is (His)6-tag B. anthracis NMAT. Format: biochemical, Bacillus anthracis.
The subject of experiment [5] is (His)6-tag B. anthracis NMAT. Format: biochemical, Bacillus anthracis. The source holds these as a separate data set.
Experiment [6] concerns native B. anthracis NMAT. Format: biochemical, Bacillus anthracis. Particulars: pH 7.5.
In experiment [7] the test system is native B. anthracis NMAT. Format: biochemical. The settings on record: pH 7.5.
Experiment [8] concerns the target T1, B. anthracis NMAT. The experiment is classed as biochemical. This is another data set of the same source.
[9] abbreviates: read-out: KD2 (dissociation constant, second site), pH 7.5.

(His)6-tagged NMAT, sequence (C3L5T6 whole entry, looked up): as above

Turning to `O=C(O)c1cccnc1C(=O)O` [quinolic acid], on B. anthracis NMAT [1], the “ability to activate or inhibit the NMAT reaction” value is reported as “None of these compounds were observed to have an effect”.
For `Nc1ncnc2c1ncn2[C@@H]1O[C@H](COP(=O)(O)OP(=O)(O)O)[C@@H](O)[C@H]1O` [ADP], at B. anthracis NMAT [1], the “ability to activate or inhibit the NMAT reaction” value is on record as “None of these compounds were observed to have an effect”. Also, the “ability to serve as substrate for NMAT in place of ATP” value (“ability to serve as substrate” below) on B. anthracis NMAT [2] is “Only CTP and dATP were able to serve as substrates”.
In the case of `O=c1[nH]cnc2c1ncn2[C@@H]1O[C@H](COP(=O)(O)OP(=O)(O)O)[C@@H](O)[C@H]1O` [IDP, inosine diphosphate], the “ability to serve as substrate” value at B. anthracis NMAT [2] was “Only CTP and dATP were able to serve as substrates”.
Turning to `Cc1cn([C@H]2C[C@H](O)[C@@H](COP(=O)(O)OP(=O)(O)O)O2)c(=O)[nH]c1=O` [TDP, thymidine diphosphate], the “ability to serve as substrate” value at B. anthracis NMAT [2] is “Only CTP and dATP were able to serve as substrates”.
Regarding “nicotinamide adenine dinucleotide phosphate [NADP]”, the “ability to activate or inhibit the NMAT reaction” value on B. anthracis NMAT [1] is given as “None of these compounds were observed to have an effect”.
As for `O=c1ccn([C@@H]2O[C@H](COP(=O)(O)OP(=O)(O)O)[C@@H](O)[C@H]2O)c(=O)[nH]1` [UDP, uridine diphosphate], the “ability to serve as substrate” value on B. anthracis NMAT [2] is “Only CTP and dATP were able to serve as substrates”.
Turning to `Nc1ncnc2c1ncn2[C@@H]1O[C@H](COP(=O)(O)OP(=O)(O)OC[C@H]2O[C@@H]([n+]3cccc(C(=O)O)c3)[C@H](O)[C@@H]2O)[C@@H](O)[C@H]1O` [NaAD, nicotinate adenine dinucleotide], on B. anthracis NMAT [3] (pH 7.5), the Stoichiometry to monomer amounted to 0.924 ± 0.003, the ΔH is -6.446 ± 0.03 kcal/mol and the ΔS result was “ΔS=3.5 cal/mol*K”. The Kd at B. anthracis NMAT [3] (read-out: KD (dissociation constant), pH 7.5) was 3.2 ± 0.8 µM. On (His)6-tagged NMAT, the “pattern of inhibition by the reaction product, ATP as variable substrate” value is listed as “competitive inhibition” and the “pattern of inhibition by the reaction product, NaMN as variable substrate” value is reported as “competitive inhibition”.
Take `Nc1nc2c(ncn2[C@@H]2O[C@H](COP(=O)(O)OP(=O)(O)OP(=O)(O)O)[C@@H](O)[C@H]2O)c(=O)[nH]1` [GTP, guanosine triphosphate]: on B. anthracis NMAT [2], the “ability to serve as substrate” value was “Only CTP and dATP were able to serve as substrates”.
On the same count and under the same terms, to `Nc1nc2c(ncn2[C@@H]2O[C@H](COP(=O)(O)OP(=O)(O)O)[C@@H](O)[C@H]2O)c(=O)[nH]1` [GDP, guanosine diphosphates] belongs “Only CTP and dATP were able to serve as substrates”.
Regarding `N[C@@H](CC(=O)O)C(=O)O` [L-aspartic acid], the “ability to activate or inhibit the NMAT reaction” value on B. anthracis NMAT [1] was “None of these compounds were observed to have an effect”.
The same measure, in the same setting: next, `NC(=O)c1ccc[n+]([C@@H]2O[C@H](COP(=O)([O-])OP(=O)(O)OC[C@H]3O[C@@H](n4cnc5c(N)ncnc54)[C@H](O)[C@@H]3O)[C@@H](O)[C@H]2O)c1` [NAD, nicotinamide adenine dinucleotide]: “None of these compounds were observed to have an effect”.
As to `Nc1ccn([C@@H]2O[C@H](COP(=O)(O)OP(=O)(O)O)[C@@H](O)[C@H]2O)c(=O)n1` [CDP, cytidine diphosphate], the “ability to serve as substrate” value at B. anthracis NMAT [2] is “Only CTP and dATP were able to serve as substrates”.
On to `Nc1ncnc2c1ncn2[C@@H]1O[C@H](COP(=O)(O)O)[C@@H](O)[C@H]1O` [AMP], for which the “ability to activate or inhibit the NMAT reaction” value on B. anthracis NMAT [1] is reported as “None of these compounds were observed to have an effect”. Also, the “ability to serve as substrate” value on B. anthracis NMAT [2] is “Only CTP and dATP were able to serve as substrates”.
`O=P(O)(O)OC[C@H]1O[C@H](OP(=O)(O)OP(=O)(O)O)[C@H](O)[C@@H]1O` [PRPP, 5-phospho-ribose-1-pyrophosphate]: the “ability to activate or inhibit the NMAT reaction” value at B. anthracis NMAT [1] is listed as “None of these compounds were observed to have an effect”.
In the case of `Nc1ncnc2c1ncn2[C@@H]1O[C@H](COP(=O)(O)OP(=O)(O)OP(=O)(O)O)[C@@H](O)[C@H]1O` [ATP, adenosine triphosphate], the K0.5 in experiment [4] (pH 7.5) was 142 ± 28 μM and 142 ± 28 ^c μM and 79 ± 6 ^d μM. Besides, the “difference in K0.5 between the continuous and discontinuous assays” value in [5] is reported as roughly 4 fold. For the same molecule, in the experiment on native B. anthracis NMAT [6], the kcat is 1240 ± 111 ^c min^−1 and 864 ± 19 ^d min^−1; the “nH (Hill coefficient)” value is 0.661 ± 0.004 ^c. This molecule also gave a Kd at B. anthracis NMAT [3] of 215 µM. Also, at B. anthracis NMAT [3] (pH 7.5), the ΔH1 entry is “ΔH1= −5348 ± 216 cal/mol”, the ΔH2 entry is on record as “ΔH2= −1.4E4 ± 350 cal/mol”, the ΔS1 entry was “ΔS1= −1.2 cal/mol*K” and the ΔS2 result is listed as “ΔS2= −36 cal/mol*K”. In addition, the Kd on B. anthracis NMAT [3] (setting [9]) came to 3720 µM. In addition, in the experiment with native B. anthracis NMAT [7], the kcat is 973 ± 120 ^c min^−1 and 702 ± 20 ^d min^−1; the “nH (Hill coefficient)” value is given as 0.621 ± 0.007 ^c.
Consider `O=C(O)c1ccc[n+]([C@@H]2O[C@H](COP(=O)(O)O)[C@@H](O)[C@H]2O)c1` [NaMN, nicotinate mononucleotide], for which the “difference in K0.5 between the continuous and discontinuous assays” value in [5] is roughly 4 fold. Moreover, in the experiment with native B. anthracis NMAT [6], the K0.5 was 110 ± 18 ^c μM and 65 ± 5 ^d μM; the kcat is 1059 ± 49 ^c min^−1 and 890 ± 16 ^d min^−1; the “nH (Hill coefficient)” value is reported as 0.708 ± 0.004 ^c. In addition, on B. anthracis NMAT [3] (pH 7.5), the ΔH1 result is listed as “ΔH1= −5385 ± 47 cal/mol”, the ΔH2 result is on record as “ΔH2= −3954 ± 183 cal/mol”, the ΔS1 entry was “ΔS1= −2.4 cal/mol*K” and the ΔS2 entry was “ΔS2= −3.9 cal/mol*K”. Also, on B. anthracis NMAT [3] (read-out: KD1 (dissociation constant, first site), pH 7.5), the Kd stood at 382 µM. In addition, the Kd at B. anthracis NMAT [3] (setting [9]) was determined as 9210 µM. In the experiment on native B. anthracis NMAT [7], the K0.5 was 16 ± 1 ^c μM and 15 ± 1 ^d μM; the kcat was 815 ± 12 ^c min^−1 and 782 ± 7 ^d min^−1; the “nH (Hill coefficient)” value is recorded as 0.806 ± 0.004 ^c.
`O=c1ccn([C@@H]2O[C@H](CO[P@@](=O)(O)O[P@@](=O)(O)OP(=O)(O)O)[C@@H](O)[C@H]2O)c(=O)[nH]1` (stereo in doubt) [UTP, uridine triphosphate]: the “ability to serve as substrate” value at B. anthracis NMAT [2] is “Only CTP and dATP were able to serve as substrates”.
For the molecule `OCC(O)CO` [glycerol], the “effect of 10% glycerol on the steady-state kinetic parameters of ATP and NaMN” value in [4] was “no significant change in the kinetic parameters”.
As for `NC(=O)c1ccc[n+]([C@@H]2O[C@H](COP(=O)([O-])O)[C@@H](O)[C@H]2O)c1` [NMN, nicotinamide mononucleotide], at B. anthracis NMAT [1], the “ability to activate or inhibit the NMAT reaction” value is “None of these compounds were observed to have an effect”. The “activity of NMAT with the mononucleotide as substrate” value at B. anthracis NMAT [8] was “little to no activity”.
Regarding `Nc1ncnc2c1ncn2[C@H]1C[C@H](O)[C@@H](COP(=O)(O)OP(=O)(O)OP(=O)(O)O)O1` [dATP, Deoxyadenosine triphosphate], the “ability to serve as substrate” value on B. anthracis NMAT [2] is on record as “able to serve as substrates”.
As to `O=C(CO)COP(=O)(O)O` [DHAP, dihydroxyacetone phosphate], the “ability to activate or inhibit the NMAT reaction” value at B. anthracis NMAT [1] is “None of these compounds were observed to have an effect”.
As for `Nc1ccn([C@@H]2O[C@H](COP(=O)(O)OP(=O)(O)OP(=O)(O)O)[C@@H](O)[C@H]2O)c(=O)n1` [CTP, cytidine triphosphate], at B. anthracis NMAT [2], the “ability to serve as substrate” value is given as “able to serve as substrates”.
